Experimental data from patent US20230085307A1, “PYRIDAZINONE COMPOUND AND HERBICIDE” (NISSAN CHEMICAL CORPORATION, priority 2019, published 2023).

Assays:
redroot pigweed [1] = assay: Test Example 5: herbicidal effect by foliage application, plastic box (Table 20, symbol N); assay type: in vivo, redroot pigweed (Amaranthus retroflexus); conditions: foliage application, 320 g/ha, three weeks after application
Summary of the method: (§1)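 Post-emergence foliar test in sterilized diluvial soil. Compound applied as water-diluted emulsion at a predetermined rate to 14-day-old plants; evaluation at three weeks.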

barnyard grass [2] = assay: Test Example 4: herbicidal effect by soil treatment (Table 19, symbol H); assay type: in vivo, barnyard grass (Echinochloa crus-galli); conditions: amount of applied herbicide 320 g/ha
Summary of the method: (§2)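 Scoring uses the grading scale of an earlier test, three weeks post-application. Treatment consists of spraying a diluted emulsion formulation across the surface of sterilized diluvial soil in which seeds are buried near 1.5 cm deep; boxes are kept in a greenhouse between 25° C. and 30° C.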

Italian ryegrass [3] = assay: Test Example 4: herbicidal effect by soil treatment (Table 19, symbol K); assay type: in vivo, Italian ryegrass (Lolium multiflorum); conditions: amount of applied herbicide 320 g/ha
Summary of the method: as §2

barnyard grass [4] = assay: Test Example 5: herbicidal effect by foliage application, plastic box (Table 20, symbol H); assay type: in vivo, barnyard grass (Echinochloa crus-galli); conditions: foliage application, 320 g/ha, three weeks after application
Summary of the method: as §1

Japanese bulrush = assay: Test Example 1: herbicidal activity, application before weed generation under submerged conditions (Table 16, symbol B); assay type: in vivo, Japanese bulrush (Schoenoplectus juncoides); conditions: amount of applied herbicide 320 g/ha
Summary of the method: (§3)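 Emulsion formulation, water-diluted to set dose, was put onto the flooded surface (4 cm depth, alluvial soil) the same day weeds were sown and 2.5-leaf rice transplanted. After 3 weeks at 25-30 °C under glass, each species was rated 0 (≤5% kill) to 5 (≥90% kill).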

persian speedwell [5] = assay: Test Example 4: herbicidal effect by soil treatment (Table 19, symbol R); assay type: in vivo, Persian speedwell (Veronica persica); conditions: amount of applied herbicide 320 g/ha
Summary of the method: as §2

southern crabgrass [6] = assay: Test Example 5: herbicidal effect by foliage application, plastic box (Table 20, symbol F); assay type: in vivo, southern crabgrass (Digitaria ciliaris); conditions: foliage application, 320 g/ha, three weeks after application
Summary of the method: as §1

lambsquarters [7] = assay: Test Example 5: herbicidal effect by foliage application, plastic box (Table 20, symbol O); assay type: in vivo, lambsquarters (Chenopodium album); conditions: foliage application, 320 g/ha, three weeks after application
Summary of the method: as §1

chickweed [8] = assay: Test Example 5: herbicidal effect by foliage application, plastic box (Table 20, symbol P); assay type: in vivo, common chickweed (Stellaria media); conditions: foliage application, 320 g/ha, three weeks after application
Summary of the method: as §1

velvetleaf [9] = assay: Test Example 4: herbicidal effect by soil treatment (Table 19, symbol M); assay type: in vivo, velvetleaf (Abutilon theophrasti); conditions: amount of applied herbicide 320 g/ha
Summary of the method: as §2

southern crabgrass [10] = assay: Test Example 4: herbicidal effect by soil treatment (Table 19, symbol F); assay type: in vivo, southern crabgrass (Digitaria ciliaris); conditions: amount of applied herbicide 320 g/ha
Summary of the method: as §2

oval-leafed pondweed = assay: Test Example 1: herbicidal activity, application before weed generation under submerged conditions (Table 16, symbol C); assay type: in vivo, oval-leafed pondweed (Monochoria vaginalis); conditions: amount of applied herbicide 320 g/ha
Summary of the method: as §3

redroot pigweed [11] = assay: Test Example 4: herbicidal effect by soil treatment (Table 19, symbol N); assay type: in vivo, redroot pigweed (Amaranthus retroflexus); conditions: amount of applied herbicide 320 g/ha
Summary of the method: as §2

late watergrass = assay: Test Example 1: herbicidal activity, application before weed generation under submerged conditions (Table 16, symbol A); assay type: in vivo, late watergrass (Echinochloa oryzicola); conditions: amount of applied herbicide 320 g/ha
Summary of the method: as §3

wild oat [12] = assay: Test Example 5: herbicidal effect by foliage application, plastic box (Table 20, symbol I); assay type: in vivo, wild oat (Avena fatua); conditions: foliage application, 320 g/ha, three weeks after application
Summary of the method: as §1

lambsquarters [13] = assay: Test Example 4: herbicidal effect by soil treatment (Table 19, symbol O); assay type: in vivo, lambsquarters (Chenopodium album); conditions: amount of applied herbicide 320 g/ha
Summary of the method: as §2

false cleavers = assay: Test Example 4: herbicidal effect by soil treatment (Table 19, symbol Q); assay type: in vivo, false cleavers (Galium spurium); conditions: amount of applied herbicide 320 g/ha
Summary of the method: as §2

green foxtail [14] = assay: Test Example 5: herbicidal effect by foliage application, plastic box (Table 20, symbol G); assay type: in vivo, green foxtail (Setaria viridis); conditions: foliage application, 320 g/ha, three weeks after application
Summary of the method: as §1

barnyard grass [15] = assay: Test Example 3: herbicidal effect by foliage application, Wagner pot (Table 18, symbol H); assay type: in vivo, barnyard grass (Echinochloa crus-galli); conditions: 320 g/ha
Summary of the method: (§4)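 Plants were sown in alluvial soil held under 0.1–0.5 cm standing water and grown 14 days in a greenhouse at 25–30 °C. An emulsifiable formulation, water-diluted to the set dose, was then sprayed onto the foliage, and effects were scored three weeks later using previously defined criteria.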

chickweed [16] = assay: Test Example 4: herbicidal effect by soil treatment (Table 19, symbol P); assay type: in vivo, common chickweed (Stellaria media); conditions: amount of applied herbicide 320 g/ha
Summary of the method: as §2

green foxtail [17] = assay: Test Example 4: herbicidal effect by soil treatment (Table 19, symbol G); assay type: in vivo, green foxtail (Setaria viridis); conditions: amount of applied herbicide 320 g/ha
Summary of the method: as §2

windgrass [18] = assay: Test Example 5: herbicidal effect by foliage application, plastic box (Table 20, symbol L); assay type: in vivo, windgrass (Apera spica-venti); conditions: foliage application, 320 g/ha, three weeks after application
Summary of the method: as §1

Chinese sprangletop = assay: Test Example 3: herbicidal effect by foliage application, Wagner pot (Table 18, symbol D); assay type: in vivo, chinese sprangletop (Leptochloa chinensis); conditions: 320 g/ha
Summary of the method: as §4

velvetleaf [19] = assay: Test Example 5: herbicidal effect by foliage application, plastic box (Table 20, symbol M); assay type: in vivo, velvetleaf (Abutilon theophrasti); conditions: foliage application, 320 g/ha, three weeks after application
Summary of the method: as §1

wild oat [20] = assay: Test Example 4: herbicidal effect by soil treatment (Table 19, symbol I); assay type: in vivo, wild oat (Avena fatua); conditions: amount of applied herbicide 320 g/ha
Summary of the method: as §2

blackgrass [21] = assay: Test Example 5: herbicidal effect by foliage application, plastic box (Table 20, symbol J); assay type: in vivo, blackgrass (Alopecurus myosuroides); conditions: foliage application, 320 g/ha, three weeks after application
Summary of the method: as §1

blackgrass [22] = assay: Test Example 4: herbicidal effect by soil treatment (Table 19, symbol J); assay type: in vivo, blackgrass (Alopecurus myosuroides); conditions: amount of applied herbicide 320 g/ha
Summary of the method: as §2

windgrass [23] = assay: Test Example 4: herbicidal effect by soil treatment (Table 19, symbol L); assay type: in vivo, windgrass (Apera spica-venti); conditions: amount of applied herbicide 320 g/ha
Summary of the method: as §2

persian speedwell [24] = assay: Test Example 5: herbicidal effect by foliage application, plastic box (Table 20, symbol R); assay type: in vivo, Persian speedwell (Veronica persica); conditions: foliage application, 320 g/ha, three weeks after application
Summary of the method: as §1

Italian ryegrass [25] = assay: Test Example 5: herbicidal effect by foliage application, plastic box (Table 20, symbol K); assay type: in vivo, Italian ryegrass (Lolium multiflorum); conditions: foliage application, 320 g/ha, three weeks after application
Summary of the method: as §1

rice flat sedge = assay: Test Example 3: herbicidal effect by foliage application, Wagner pot (Table 18, symbol E); assay type: in vivo, rice flat sedge (Cyperus iria); conditions: 320 g/ha
Summary of the method: as §4

| Structure (SMILES) | N: redroot pigweed, herbicidal effect grade (redroot pigweed [1]) | H: barnyard grass, herbicidal effect grade (barnyard grass [4]) | Herbicidal effect, B: Japanese bulrush (Japanese bulrush) | F: southern crabgrass, herbicidal effect grade (southern crabgrass [6]) | O: lambsquarters, herbicidal effect grade (lambsquarters [7]) | P: chickweed, herbicidal effect grade (chickweed [8]) | Herbicidal effect, C: oval-leafed pondweed (oval-leafed pondweed) | Herbicidal effect, A: late watergrass (late watergrass) | I: wild oat, herbicidal effect grade (wild oat [12]) | G: green foxtail, herbicidal effect grade (green foxtail [14]) | herbicidal effect on barnyard grass (H) (barnyard grass [15]) | L: windgrass, herbicidal effect grade (windgrass [18]) | herbicidal effect on Chinese sprangletop (D) (Chinese sprangletop) | M: velvetleaf, herbicidal effect grade (velvetleaf [19]) | J: blackgrass, herbicidal effect grade (blackgrass [21]) | R: persian speedwell, herbicidal effect grade (persian speedwell [24]) | K: Italian ryegrass, herbicidal effect grade (Italian ryegrass [25]) | herbicidal effect on rice flat sedge (E) (rice flat sedge) | also measured |
| --- | --- | --- | --- | --- | --- | --- | --- | --- | --- | --- | --- | --- | --- | --- | --- | --- | --- | --- | --- |
| COc1ccccc1-c1sc2cc(Cl)ccc2c1-c1c(O)c(C)nn(C)c1=O [3-035] | 4 (Herbicidal rate of 70% or more and less than 90%) | 4 (Herbicidal rate of 70% or more and less than 90%) | 3 (Herbicidal rate of 40% or more and less than 70%) | 4 (Herbicidal rate of 70% or more and less than 90%) | 4 (Herbicidal rate of 70% or more and less than 90%) | 5 (Herbicidal rate of 90% or more (almost completely withered)) | 0 (Herbicidal rate of 5% or less (almost no effect)) | 3 (Herbicidal rate of 40% or more and less than 70%) | 3 (Herbicidal rate of 40% or more and less than 70%) | 5 (Herbicidal rate of 90% or more (almost completely withered)) | 4 (Herbicidal rate of 70% or more and less than 90%) | 4 (Herbicidal rate of 70% or more and less than 90%) | 3 (Herbicidal rate of 40% or more and less than 70%) | 4 (Herbicidal rate of 70% or more and less than 90%) | 3 (Herbicidal rate of 40% or more and less than 70%) | 5 (Herbicidal rate of 90% or more (almost completely withered)) | 3 (Herbicidal rate of 40% or more and less than 70%) | 5 (Herbicidal rate of 90% or more (almost completely withered)) | H: barnyard grass, herbicidal effect grade (barnyard grass [2]): 5 (Herbicidal rate of 90% or more (almost completely withered)); K: Italian ryegrass, herbicidal effect grade (Italian ryegrass [3]): 2 (Herbicidal rate of 20% or more and less than 40%); R: persian speedwell, herbicidal effect grade (persian speedwell [5]): 1 (Herbicidal rate of 5% or more and less than 20%); M: velvetleaf, herbicidal effect grade (velvetleaf [9]): 3 (Herbicidal rate of 40% or more and less than 70%); F: southern crabgrass, herbicidal effect grade (southern crabgrass [10]): 3 (Herbicidal rate of 40% or more and less than 70%); N: redroot pigweed, herbicidal effect grade (redroot pigweed [11]): 4 (Herbicidal rate of 70% or more and less than 90%); O: lambsquarters, herbicidal effect grade (lambsquarters [13]): 5 (Herbicidal rate of 90% or more (almost completely withered)); Q: false cleavers, herbicidal effect grade (false cleavers): 3 (Herbicidal rate of 40% or more and less than 70%); P: chickweed, herbicidal effect grade (chickweed [16]): 4 (Herbicidal rate of 70% or more and less than 90%); G: green foxtail, herbicidal effect grade (green foxtail [17]): 4 (Herbicidal rate of 70% or more and less than 90%); I: wild oat, herbicidal effect grade (wild oat [20]): 0 (Herbicidal rate of 5% or less (almost no effect)); J: blackgrass, herbicidal effect grade (blackgrass [22]): 3 (Herbicidal rate of 40% or more and less than 70%); L: windgrass, herbicidal effect grade (windgrass [23]): 0 (Herbicidal rate of 5% or less (almost no effect)) |
| Cc1nn(C)c(=O)c(-c2c(-c3ccc(OC(F)F)cc3)sc3cc(F)ccc23)c1O [3-141] | 5 (Herbicidal rate of 90% or more (almost completely withered)) | 4 (Herbicidal rate of 70% or more and less than 90%) | 0 (Herbicidal rate of 5% or less (almost no effect)) | 0 (Herbicidal rate of 5% or less (almost no effect)) | 5 (Herbicidal rate of 90% or more (almost completely withered)) | 5 (Herbicidal rate of 90% or more (almost completely withered)) | 0 (Herbicidal rate of 5% or less (almost no effect)) | 3 (Herbicidal rate of 40% or more and less than 70%) | 1 (Herbicidal rate of 5% or more and less than 20%) | 5 (Herbicidal rate of 90% or more (almost completely withered)) | 5 (Herbicidal rate of 90% or more (almost completely withered)) | 5 (Herbicidal rate of 90% or more (almost completely withered)) | 2 (Herbicidal rate of 20% or more and less than 40%) | 5 (Herbicidal rate of 90% or more (almost completely withered)) | 4 (Herbicidal rate of 70% or more and less than 90%) | 5 (Herbicidal rate of 90% or more (almost completely withered)) | 5 (Herbicidal rate of 90% or more (almost completely withered)) | 5 (Herbicidal rate of 90% or more (almost completely withered)) | Herbicidal effect by soil treatment, H: barnyard grass (barnyard grass [2]): 3 (Herbicidal rate of 40% or more and less than 70%); Herbicidal effect by soil treatment, K: Italian ryegrass (Italian ryegrass [3]): 3 (Herbicidal rate of 40% or more and less than 70%); Herbicidal effect by soil treatment, R: persian speedwell (persian speedwell [5]): 4 (Herbicidal rate of 70% or more and less than 90%); Herbicidal effect by soil treatment, M: velvetleaf (velvetleaf [9]): 3 (Herbicidal rate of 40% or more and less than 70%); Herbicidal effect by soil treatment, F: southern crabgrass (southern crabgrass [10]): 0 (Herbicidal rate of 5% or less (almost no effect)); Herbicidal effect by soil treatment, N: redroot pigweed (redroot pigweed [11]): 5 (Herbicidal rate of 90% or more (almost completely withered)); Herbicidal effect by soil treatment, O: lambsquarters (lambsquarters [13]): 5 (Herbicidal rate of 90% or more (almost completely withered)); Herbicidal effect by soil treatment, Q: false cleavers (false cleavers): 0 (Herbicidal rate of 5% or less (almost no effect)); Herbicidal effect by soil treatment, P: chickweed (chickweed [16]): 3 (Herbicidal rate of 40% or more and less than 70%); Herbicidal effect by soil treatment, G: green foxtail (green foxtail [17]): 1 (Herbicidal rate of 5% or more and less than 20%); Herbicidal effect by soil treatment, I: wild oat (wild oat [20]): 0 (Herbicidal rate of 5% or less (almost no effect)); Herbicidal effect by soil treatment, J: blackgrass (blackgrass [22]): 3 (Herbicidal rate of 40% or more and less than 70%); Herbicidal effect by soil treatment, L: windgrass (windgrass [23]): 3 (Herbicidal rate of 40% or more and less than 70%) |
